Consider three compounds from patent US11286281B2, “Homodetic cyclic peptides targeting alpha-4-beta-7 integrin” (priority 2017, dated 2022).

For assay [1], the target named is T1, integrin α4β7 (Homo sapiens, UniProt P13612+P26010).
T1 sequence (P13612 34-1032): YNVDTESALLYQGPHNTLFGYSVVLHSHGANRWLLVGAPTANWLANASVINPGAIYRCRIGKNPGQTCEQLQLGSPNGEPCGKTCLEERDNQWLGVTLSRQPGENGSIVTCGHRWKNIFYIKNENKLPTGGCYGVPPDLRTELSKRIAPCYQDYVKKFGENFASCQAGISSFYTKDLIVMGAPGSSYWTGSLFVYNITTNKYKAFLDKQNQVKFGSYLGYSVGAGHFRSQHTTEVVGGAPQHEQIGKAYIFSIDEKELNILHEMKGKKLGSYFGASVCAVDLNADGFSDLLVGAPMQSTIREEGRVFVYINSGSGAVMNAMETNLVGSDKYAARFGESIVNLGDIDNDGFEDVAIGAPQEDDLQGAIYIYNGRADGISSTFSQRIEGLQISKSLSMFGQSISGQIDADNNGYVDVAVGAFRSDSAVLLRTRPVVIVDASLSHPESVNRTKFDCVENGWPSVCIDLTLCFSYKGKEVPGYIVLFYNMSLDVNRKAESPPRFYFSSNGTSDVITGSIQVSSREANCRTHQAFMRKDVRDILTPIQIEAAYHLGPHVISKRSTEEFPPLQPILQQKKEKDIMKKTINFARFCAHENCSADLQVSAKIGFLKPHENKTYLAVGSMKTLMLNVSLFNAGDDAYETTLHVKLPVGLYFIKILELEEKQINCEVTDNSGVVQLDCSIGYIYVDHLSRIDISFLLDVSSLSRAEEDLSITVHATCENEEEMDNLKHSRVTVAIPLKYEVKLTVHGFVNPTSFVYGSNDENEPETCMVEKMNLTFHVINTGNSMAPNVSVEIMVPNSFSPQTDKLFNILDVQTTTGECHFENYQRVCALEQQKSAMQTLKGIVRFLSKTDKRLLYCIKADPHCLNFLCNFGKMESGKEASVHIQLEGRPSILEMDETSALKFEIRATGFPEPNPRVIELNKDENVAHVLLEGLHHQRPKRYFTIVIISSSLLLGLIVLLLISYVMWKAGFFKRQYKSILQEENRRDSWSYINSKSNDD
T1 sequence (P26010 20-798): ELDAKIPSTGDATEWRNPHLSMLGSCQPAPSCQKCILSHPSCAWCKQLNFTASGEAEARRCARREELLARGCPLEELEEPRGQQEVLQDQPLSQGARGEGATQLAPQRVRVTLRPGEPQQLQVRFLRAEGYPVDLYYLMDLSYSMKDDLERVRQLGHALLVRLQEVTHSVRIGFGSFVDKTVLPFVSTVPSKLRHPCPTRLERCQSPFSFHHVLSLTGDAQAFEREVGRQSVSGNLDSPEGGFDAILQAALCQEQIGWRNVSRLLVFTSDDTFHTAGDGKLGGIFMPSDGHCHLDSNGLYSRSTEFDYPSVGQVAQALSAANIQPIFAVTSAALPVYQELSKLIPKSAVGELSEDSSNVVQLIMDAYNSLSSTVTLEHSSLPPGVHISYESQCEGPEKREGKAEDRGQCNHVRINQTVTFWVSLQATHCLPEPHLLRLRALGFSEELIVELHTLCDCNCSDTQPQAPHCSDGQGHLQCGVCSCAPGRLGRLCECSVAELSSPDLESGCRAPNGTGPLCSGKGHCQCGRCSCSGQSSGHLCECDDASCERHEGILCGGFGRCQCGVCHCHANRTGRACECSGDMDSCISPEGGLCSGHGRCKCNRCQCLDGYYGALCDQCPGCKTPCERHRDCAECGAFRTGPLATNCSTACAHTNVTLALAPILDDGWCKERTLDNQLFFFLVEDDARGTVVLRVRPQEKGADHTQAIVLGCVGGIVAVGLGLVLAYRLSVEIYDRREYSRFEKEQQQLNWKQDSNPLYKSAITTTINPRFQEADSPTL
The experiment in a line: Whole blood ligand displacement (receptor occupancy): biotinylated rhMAdCAM-1 binding to α4β7+ Th memory cells. In kind it is cell-based. Particulars: for selectivity of RO versus α4β1 (fold difference in IC50 between assays): whole blood, α4β7 versus α4β1. The method, then:
Receptor occupancy (RO) in primary cells was determined by measuring the amount of biotinylated human recombinant MAdCAM-1-FC or human recombinant VCAM-1-Fc bound to selected cell populations using flow cytometry. Human recombinant MAdCAM-1-FC or human recombinant VCAM-1-FC (R&D systems) were biotinylated using commercially available reagents and protocol (Pierce). Whole blood was collected from human donors in sodium heparin tubes. […] Cells were washed twice with 1 mL of 1×DPBS calcium magnesium free(CMF) (ThermoFisher Scientific) and resuspended in 100 μL of DPBS CMF. […] Cells were washed with 1 mL stain buffer-FBS (BD Biosciences) and resuspended in 100 μl stain Buffer-FBS (BD Biosciences) containing 4 mM MnCl2. […] Cells were then washed with 1 mL stain buffer-FBS and resuspended in 100 μl stain buffer-FBS. The cells were incubated in the dark for 30 minutes at room temperature with 1 μl Streptavidin APC (Biolegend 0.2 mg/ml) and a panel of antibodies for the detection of memory T helper a4b7-positive cells subset. And amount of 5.0 μl each of the following antibodies were used; CD45 FITC (BioLegend 200 μg/ml), CD29 APC Cy7 (BioLegend 100 μg/ml), Integrin beta7 PE, (BioLegend concentration 50 μg/mL), CD49d […] (BioLegend 50 μg/mL), CD3 […] (BioLegend 30 μg/mL), CD4 PECy7 (BioLegend 100 μg/mL), CD45RO PerCP, BioLegend 200 μg/mL). The cells were then washed with stain-buffer-FBS and resuspended in 150 μL stain buffer-FBS for acquisition on the flow cytometer (BD FACSCantoTM flow cytometer and […] software). FACS data was acquire by electronic gating on the basis of forward versus side scatter, The cytometer was set to collect 20,000 events in each tube. Cell population were determined using the following markers, CD45+, CD3+, CD4+, CD45RO+, CD49d+, integrin β7, biotinylated ligands.

For assay [2], the target named is T1, integrin α4β7. Kind of assay: Integrin α4β7-MAdCAM human cell adhesion assay (RPMI8866 cells). In kind it is cell-based. Further details: host or cells: RPMI8866 human cells. Particulars: for IC50: adhesion of RPMI8866 cells to MAdCAM-1 coated plates. The method, then:
RPM18866 human cells (Sigma #95041316) were cultured in RPMI 1640 medium (HyClone SH30027.1) supplemented with 10% FBS (Seradigm) and 1% Penicillin-Streptomycin. […] RPM18866 cells were resuspended at 10 million cells/ml in PBS containing […] and incubated at 37° C. for 30 min in a 50 ml tube. […] The plate was emptied by inverting and blotting on paper towels and washed manually twice with PBS. 100 μl PBS was then added to each well. The fluorescence was read (Ex495/Em515) using a plate reader (Tecan Infinite 1000). To calculate the dose response, the fluorescence value of control wells not containing cells was subtracted from each test well.

The mark [3] stands for this setting: α4β7 Th memory cells, human whole blood, read-out: MAdCAM-1 Competition IC50 (receptor occupancy).

Values joined by “and” are separate entries in the source; they are usually repeats but may differ in a detail not shown here. Equal entries are not always repeated. Numbered stars: 1 amine (or outer) side, 2 acyl side, 3 side chain; on linkers, the order of the positions; unused ones are H or OH. Square brackets hold non-standard residues; d marks the D form. Peptide text beside a SMILES is read from it. X1 = O=C(c1ccc(-c2ccc(N3CCNCC3)cc2)c(CN[*:1])c1)[*:2] Some results are limits rather than exact numbers.

As usually defined, the IC50 is the concentration that inhibits the measured activity by half.

As for `CC(C)C[C@@H]1NC(=O)c2ccc(-c3ccc(N4CCNCC4)cc3)c(c2)CNC(=O)[C@@H]2CCCN2C(=O)[C@H](C)NC(=O)[C@H]([C@@H](C)O)NC(=O)[C@H](CC(=O)O)NC1=O` [Compound 8] (cyclo(P[X1]LDTA)), the “competition with MAdCAM-1 on α4β7-positive primary cells, result in words” value in assay [1] (human whole blood) is on record as “relatively weak concentration-response curve”. Besides, the IC50 is over 4000 nM in assay [1] (human whole blood, read-out: α4β7 RO IC50); over 4000 nM in assay [1] (setting [3]); ~202 nM and 202 nM in assay [2]. The “selectivity of RO versus α4β1 (fold difference in IC50 between assays)” value in assay [1] is “no selectivity”. In addition, the “fold difference in IC50 between RAMOS and RPMI8866 cell adhesion assays, in favor of integrin α4β7” value in assay [2] (RAMOS (α4β1) versus RPMI8866 (α4β7)) is on record as 2.2 fold.
For the compound `CC(C)C[C@@H]1NC(=O)c2ccc(-c3ccc(N4CCN(C(=O)COCC(=O)N5CCN(c6ccc(-c7ccc8cc7CNC(=O)[C@@H]7CCCN7C(=O)[C@H](C)NC(=O)[C@H]([C@@H](C)O)NC(=O)[C@H](CC(=O)O)NC(=O)[C@H](CC(C)C)NC8=O)cc6)CC5)CC4)cc3)c(c2)CNC(=O)[C@@H]2CCCN2C(=O)[C@H](C)NC(=O)[C@H]([C@@H](C)O)NC(=O)[C@H](CC(=O)O)NC1=O` [Compound 17], in assay [2], the IC50 was about 19 nM.
For the compound `CC(C)C[C@@H]1NC(=O)c2ccc(-c3ccc(N4CCN(Cc5cccc(CN6CCN(c7ccc(-c8ccc9cc8CNC(=O)[C@@H]8CCCN8C(=O)[C@H](C)NC(=O)[C@H]([C@@H](C)O)NC(=O)[C@H](CC(=O)O)NC(=O)[C@H](CC(C)C)NC9=O)cc7)CC6)c5)CC4)cc3)c(c2)CNC(=O)[C@@H]2CCCN2C(=O)[C@H](C)NC(=O)[C@H]([C@@H](C)O)NC(=O)[C@H](CC(=O)O)NC1=O` [Compound 18], the “α4β7 RO IC50” value in assay [1] (human whole blood) is “sub-micromolar”. In addition, the “selectivity of RO versus α4β1 (fold difference in IC50 between assays)” value in assay [1] was “selectivity versus α4β1”. Besides, the half-inhibitory concentration (IC50) was 25 nM and 24.7 nM in assay [1] (setting [3]); 8.4 nM in assay [2].
